In ChEMBL document CHEMBL3351608, “2-Phenylindole and Arylsulphonamide: Novel Scaffolds Bactericidal against Mycobacterium tuberculosis” (ACS Med Chem Lett, 2014):
In brackets after ≈: the same amount, converted by molar mass.

Columns and labels:
[1] = system: Mycobacterium tuberculosis; experiment: microbe, parasite or virus in culture; conditions: 120 h
Description: Antimicrobial activity against Mycobacterium tuberculosis assessed as growth inhibition after 5 days by microdilution method

[2] = system: Staphylococcus aureus; experiment: Antimicrobial activity against Staphylococcus aureus; type: functional
[3] = system: Mycolicibacterium smegmatis; experiment: Inhibition of oxidative phosphorylation in Mycobacterium smegmatis membrane vesicles assessed as inhibition of NADH driven ATP synthesis by luciferin/luciferase assay; type: functional
[4] = system: Pseudomonas aeruginosa; experiment: Antimicrobial activity against Pseudomonas aeruginosa; type: functional
[5] = system: Escherichia coli; experiment: Antimicrobial activity against Escherichia coli; type: functional
[6] = Aqueous solubility of the compound; type: physicochemical; conditions: buffer
[7] = system: Mycobacterium tuberculosis; experiment: microbe, parasite or virus in culture; conditions: H37Rv, 120 h
Description: Antimicrobial activity against wild-type Mycobacterium tuberculosis H37Rv assessed as growth inhibition after 5 days by microdilution method

[8] = target: T1, Enoyl-[acyl-carrier-protein] reductase [NADH] (Mycobacterium tuberculosis, UniProt P9WGR1)
T1 sequence (P9WGR1 whole entry): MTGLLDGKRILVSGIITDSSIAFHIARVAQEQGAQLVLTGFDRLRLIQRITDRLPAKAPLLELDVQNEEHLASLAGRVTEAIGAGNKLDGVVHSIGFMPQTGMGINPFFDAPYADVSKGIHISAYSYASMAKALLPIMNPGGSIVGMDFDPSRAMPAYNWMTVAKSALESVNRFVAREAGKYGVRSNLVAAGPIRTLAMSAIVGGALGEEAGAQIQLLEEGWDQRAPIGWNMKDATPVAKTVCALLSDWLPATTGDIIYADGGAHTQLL
Description: Inhibition of Mycobacterium tuberculosis InhA using dodecyl coA as substrate by LC-MS/MS analysis

[9] = system: Streptococcus pneumoniae; experiment: Antimicrobial activity against Streptococcus pneumoniae; type: functional
[10] = system: Haemophilus influenzae; experiment: Antimicrobial activity against Haemophilus influenzae; type: functional
[11] = system: Mycobacterium tuberculosis; experiment: Bactericidal activity against Mycobacterium tuberculosis H37Rv after 5 days; type: functional; conditions: 120 h
[12] = Cytotoxicity against human THP1 cells assessed as cell viability after 72 hrs by resazurin staining-based fluorimetric analysis; conditions: THP-1 cells
[13] = Lipophilicity, log D of the compound; type: physicochemical; conditions: octanol/water
[14] = system: Mycobacterium tuberculosis; experiment: Bactericidal activity against hypoxia induced nonreplicating persistent Mycobacterium tuberculosis H37Rv assessed as concentration required to reduce >/= 2 log10 CFU/ml after 7 days; type: functional
[15] = target: DNA gyrase subunit A/DNA gyrase subunit B (Mycobacterium tuberculosis (strain ATCC 25618 / H37Rv), UniProt P9WG45+P9WG47)
Chain of DNA gyrase subunit A/DNA gyrase subunit B (P9WG45 whole entry): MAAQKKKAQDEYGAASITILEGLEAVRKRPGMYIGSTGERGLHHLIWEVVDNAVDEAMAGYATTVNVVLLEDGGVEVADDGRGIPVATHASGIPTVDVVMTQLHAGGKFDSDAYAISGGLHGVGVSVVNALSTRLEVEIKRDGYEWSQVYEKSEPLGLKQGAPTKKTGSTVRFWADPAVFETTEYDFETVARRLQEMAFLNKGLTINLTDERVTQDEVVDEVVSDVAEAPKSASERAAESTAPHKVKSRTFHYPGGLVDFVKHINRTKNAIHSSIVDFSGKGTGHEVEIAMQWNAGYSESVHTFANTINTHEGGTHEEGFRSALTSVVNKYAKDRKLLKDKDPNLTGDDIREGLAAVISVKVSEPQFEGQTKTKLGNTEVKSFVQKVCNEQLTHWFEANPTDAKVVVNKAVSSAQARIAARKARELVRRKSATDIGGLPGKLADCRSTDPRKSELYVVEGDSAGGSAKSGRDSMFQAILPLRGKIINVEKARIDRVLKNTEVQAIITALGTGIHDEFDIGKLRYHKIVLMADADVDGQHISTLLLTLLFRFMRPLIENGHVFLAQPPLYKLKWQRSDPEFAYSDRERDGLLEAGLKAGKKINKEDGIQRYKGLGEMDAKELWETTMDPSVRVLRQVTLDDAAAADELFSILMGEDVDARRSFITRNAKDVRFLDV
Chain of DNA gyrase subunit A/DNA gyrase subunit B (P9WG47 whole entry): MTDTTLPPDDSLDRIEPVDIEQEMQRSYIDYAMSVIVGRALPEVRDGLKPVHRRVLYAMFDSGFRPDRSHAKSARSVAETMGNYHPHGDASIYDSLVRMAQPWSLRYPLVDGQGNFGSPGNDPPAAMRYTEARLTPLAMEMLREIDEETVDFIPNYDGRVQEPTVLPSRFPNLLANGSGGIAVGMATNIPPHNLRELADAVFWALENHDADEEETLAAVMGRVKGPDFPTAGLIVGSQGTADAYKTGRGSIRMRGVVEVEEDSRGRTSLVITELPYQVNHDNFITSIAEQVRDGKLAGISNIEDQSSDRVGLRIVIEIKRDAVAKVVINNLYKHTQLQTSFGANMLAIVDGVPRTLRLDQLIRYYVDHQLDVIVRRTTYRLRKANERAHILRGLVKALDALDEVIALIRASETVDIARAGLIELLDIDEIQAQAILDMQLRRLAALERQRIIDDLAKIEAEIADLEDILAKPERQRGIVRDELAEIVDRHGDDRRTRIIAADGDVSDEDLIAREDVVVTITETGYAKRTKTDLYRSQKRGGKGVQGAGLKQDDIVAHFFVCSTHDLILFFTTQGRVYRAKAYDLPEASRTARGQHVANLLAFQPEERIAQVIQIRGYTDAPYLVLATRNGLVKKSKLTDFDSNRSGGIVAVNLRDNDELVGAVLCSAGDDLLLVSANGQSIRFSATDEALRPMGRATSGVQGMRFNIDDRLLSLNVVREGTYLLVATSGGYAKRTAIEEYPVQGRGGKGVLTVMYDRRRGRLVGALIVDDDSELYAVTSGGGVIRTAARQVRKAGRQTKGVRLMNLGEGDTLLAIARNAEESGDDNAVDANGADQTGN
Description: Inhibition of Mycobacterium tuberculosis DNA gyrase-mediated relaxed pBR322 DNA supercoiling by gel electrophoresis

[16] = system: Klebsiella pneumoniae; experiment: Antimicrobial activity against Klebsiella pneumoniae; type: functional
[17] = system: Mycobacterium tuberculosis; type: functional; conditions: 120 h
[18] = system: Mycobacterium tuberculosis; experiment: Bactericidal activity against Mycobacterium tuberculosis H37Rv infected in human THP1 cells assessed as reduction in CFU at 1 to 4 times MIC by time-kill method; type: functional, THP-1

## COCCN(C1CCN(Cc2c(-c3ccccc3)[nH]c3c(C)cccc23)C1)S(C)(=O)=O (stereo not drawn)
[1]
  MIC: 0.8 µM (≈ 0.353 µg/mL)
[2]
  MIC: > 200 µM
[3]
  IC50: 15.6 µM
[4]
  MIC: > 200 µM
[5]
  MIC: > 200 µM
[6]
  solubility: 5.4 µM (≈ 2.38 µg/mL)
[7]
  MIC: 0.8 µM (≈ 0.353 µg/mL)
[8]
  IC50: > 100 µM
[9]
  MIC: > 200 µM
[10]
  MIC: > 200 µM
[11]
  MBC: 3.8 µM (≈ 1.68 µg/mL)
[12]
  CC50 at 72 h: > 64 µM
[13]
  logD: 3
[14]
  Activity: 3.1 µM
[15]
  IC50: > 100 µM
[16]
  MIC: > 200 µM
[17]
  MIC: 0.8 µM (≈ 0.353 µg/mL)
[18]
  fold change (FC): 1.5

## CC1COC2(CCN(c3nc(=O)c4cc(C(F)(F)F)cc([N+](=O)[O-])c4s3)CC2)O1 (stereo not drawn)
[1]
  MIC: 0.01 µM (≈ 0.00431 µg/mL)
[7]
  MIC: 0.01 µM (≈ 0.00431 µg/mL)

## Cc1cccc2c(CN3CCCC3)c(-c3ccccc3)[nH]c12
[6]
  solubility: 752 µM (≈ 218 µg/mL)
[13]
  logD: 1.8

## CO[C@H]1/C=C/O[C@@]2(C)Oc3c(C)c(O)c4c(O)c(c(/C=N/N5CCN(C)CC5)c(O)c4c3C2=O)NC(=O)/C(C)=C\C=C\[C@H](C)[C@H](O)[C@@H](C)[C@@H](O)[C@@H](C)[C@H](OC(C)=O)[C@@H]1C [RIFAMPIN]
[1]
  MIC: 0.003 µM (≈ 0.00247 µg/mL)
[7]
  MIC: 0.003 µM (≈ 0.00247 µg/mL)

## COCCN(C1CCN(Cc2c(-c3ccccc3)[nH]c3c(OC)cccc23)C1)S(C)(=O)=O (stereo not drawn)
[6]
  solubility: 103 µM (≈ 47.1 µg/mL)
[13]
  logD: 2.8

## O=S(=O)(NC1CCN(Cc2ccncc2)CC1)c1ccc(-n2cccn2)cc1
[1]
  MIC: 1.6 µM (≈ 0.636 µg/mL)
[2]
  MIC: > 200 µM
[3]
  IC50: > 70 µM
[4]
  MIC: > 200 µM
[5]
  MIC: > 200 µM
[6]
  solubility: 149 µM (≈ 59.2 µg/mL)
[7]
  MIC: 3.3 µM (≈ 1.31 µg/mL)
[8]
  IC50: > 100 µM
[9]
  MIC: > 200 µM
[10]
  MIC: > 200 µM
[11]
  MBC: 50 µM (≈ 19.9 µg/mL)
[12]
  CC50 at 72 h: > 64 µM
[13]
  logD: 2.6
[14]
  Activity: 25 µM
[15]
  IC50: > 100 µM
[16]
  MIC: > 200 µM
[17]
  MIC: 3.3 µM (≈ 1.31 µg/mL)

## COc1nc2ccc(Br)cc2cc1[C@@H](c1ccccc1)[C@@](O)(CCN(C)C)c1cccc2ccccc12 [BEDAQUILINE]
[3]
  IC50: 0.001 µM

## Cc1cccc2c(CN3CCC(NS(C)(=O)=O)C3)c(-c3ccccc3)[nH]c12 (racemic)
[2]
  MIC: > 200 µM
[4]
  MIC: > 200 µM
[5]
  MIC: > 200 µM
[7]
  MIC: 1.6 µM (≈ 0.614 µg/mL)
[9]
  MIC: > 200 µM
[10]
  MIC: > 200 µM
[11]
  MBC: 1.6 µM (≈ 0.614 µg/mL)
[12]
  CC50 at 72 h: 32 µM
[14]
  Activity: >200 µM
[16]
  MIC: > 200 µM
[17]
  MIC: 1.6 µM (≈ 0.614 µg/mL)

## O=S(=O)(NC1CCN(Cc2ccncc2)CC1)c1ccc(-n2cccn2)cn1
[6]
  solubility: 1000 µM (≈ 398 µg/mL)
[13]
  logD: 1.7

## NNC(=O)c1ccncc1 [ISONIAZID]
[1]
  MIC: > 7.5 µM
[7]
  MIC: 0.5 µM (≈ 0.0686 µg/mL)

## Cc1cc(-n2cccn2)ccc1S(=O)(=O)NC1CCN(Cc2ccncc2)CC1
[2]
  MIC: > 200 µM
[4]
  MIC: > 200 µM
[5]
  MIC: > 200 µM
[6]
  solubility: 66 µM (≈ 27.2 µg/mL)
[7]
  MIC: 0.8 µM (≈ 0.329 µg/mL)
[9]
  MIC: > 200 µM
[10]
  MIC: > 200 µM
[11]
  MBC: 1.6 µM (≈ 0.658 µg/mL)
[12]
  CC50 at 72 h: 32 µM
[13]
  logD: 2.3
[14]
  Activity: >200 µM
[16]
  MIC: > 200 µM
[17]
  MIC: 0.8 µM (≈ 0.329 µg/mL)
[18]
  fold change (FC): 1.5
